Measured values taken from PubChem BioAssay (NCI).
Several values for one entry are separate records, joined by “and”; a condition that tells them apart may be missing. Equal values may be shown once.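 Assay format: 96-well plates, 48-hour exposure. GI50 is the concentration that inhibits growth by half. At the TGI there is no net growth.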

What was measured:
Test in all cases: DTP human tumour cell line panel, 48 h
[1] = system: DU-145 prostate
[2] = system: RXF 393 renal
[3] = system: SF-268 CNS
[4] = system: HS 578T breast
[5] = system: ACHN renal
[6] = system: SN12C renal
[7] = system: NCI-H23 lung
[8] = system: SF-295 CNS
[9] = system: NCI-H522 lung
[10] = system: NCI-H460 lung

SMILES	GI50 [1] [µM]	TGI [1]	GI50 [2]	TGI [2]	GI50 [3] [µM]	TGI [3]	GI50 [4] [µM]	TGI [4]	GI50 [5]	TGI [5]	GI50 [6] [µM]	TGI [6]	GI50 [7] [µM]	TGI [7]	GI50 [8]	TGI [8]	GI50 [9]	TGI [9]	GI50 [10]	TGI [10]
CC1SC2(CCCCC2)N(NC(=O)c2[nH]c3ccc(Br)cc3c2-c2ccccc2)C1=O (stereo unspecified)	> 100	> 100 µM	13.7 µM	69.2 µM	75.6	> 100 µM	70.7	> 100 µM	61.3 µM	> 100 µM	4.66	30.6 µM	30.7	> 100 µM	10.7 µM	46.7 µM	6.78 µM	> 100 µM	48.2 µM	> 100 µM
COc1c(N2CCN(CN3C(=O)C(=O)c4cc(Cl)ccc43)C(C)C2)c(F)cc2c(=O)c(C(=O)O)cn(C3CC3)c12 (stereo unspecified)	70.6	> 100 µM	34.4 µM	> 100 µM	26.8	> 100 µM	30.4	> 100 µM	32.1 µM	> 100 µM	48.2	> 100 µM	22	> 100 µM	91.7 µM	> 100 µM	> 100 µM	> 100 µM	30.6 µM	> 100 µM
CN(C)c1cccc(F)c1C(=O)NC(=O)Nc1ccc(Cl)cc1	–	> 100 µM	–	69.6 µM	–	> 100 µM	–	> 22.3 µM	–	> 100 µM	–	> 100 µM	–	> 100 µM	–	> 21.4 µM	–	5.77 µM	–	> 100 µM
Cc1[nH]c2cc(F)ccc2c1-c1nc2c3cccnc3c3ncccc3c2[nH]1	0.191	1.8 µM	0.19 µM	0.785 µM	0.21	2.2 µM	1.09	4.74 µM	0.254 µM	1.45 µM	0.399	3.38 µM	0.343	1.89 µM	0.253 µM	0.818 µM	0.391 µM	1.46 µM	0.322 µM	1.03 µM
COc1ccc(-c2csc(NC(=O)CN3CCN(c4cc5c(cc4F)c(=O)c(C(=O)O)cn5C4CC4)CC3)n2)cc1	3.35	> 100 µM	4.97 µM	27.7 µM	4.28	> 100 µM	9.82	> 100 µM	3.25 µM	> 100 µM	3.37	> 100 µM	2.9	> 100 µM	2.73 µM	15.9 µM	3.48 µM	> 100 µM	3.18 µM	> 100 µM
COc1cc(Cl)cc(-c2nn(-c3cccc(NC(=O)Nc4ccc(Cl)c(Cl)c4)c3)cc2-c2ccncc2)c1	3.85	> 100 µM	1.96 µM	7.25 µM	3.27	> 100 µM	3.89	> 100 µM	3.23 µM	> 100 µM	3.1	> 100 µM	2.62	9.04 µM	1.77 µM	7.21 µM	1.29 µM	4.48 µM	2.27 µM	13.9 µM
CCOc1ccc2c(c1)c(CC(=O)O)cn2C	–	> 100 µM	–	> 100 µM	–	> 100 µM	–	> 100 µM	–	> 100 µM	–	> 100 µM	–	> 100 µM	–	> 100 µM	–	> 100 µM	–	> 100 µM
Cc1ccc(C2NC(=O)c3ccccc3N2)c(C)c1 (stereo unspecified)	–	> 100 µM	–	> 76.2 µM	–	> 100 µM	–	6.78 µM	–	> 100 µM	–	> 86.5 µM	–	> 87 µM	–	> 35 µM	–	4.91 µM	–	> 100 µM
O=C1CC/C(=C/COc2cc(=O)oc3ccccc23)O1	4.32	17.6 µM	6.9 µM	21 µM	16.2	51.7 µM	10.5	57.4 µM	1.29 µM	2.55 µM	14.7	36 µM	12.8	26.8 µM	14.8 µM	40.6 µM	1.73 µM	4.36 µM	17.5 µM	47.2 µM
CCN1C(=NCCO)NS(=O)(=O)c2ccccc21	–	> 100 µM	–	> 100 µM	–	> 100 µM	–	> 100 µM	–	> 100 µM	–	> 100 µM	–	> 100 µM	–	> 100 µM	–	> 100 µM	–	> 100 µM
COc1ccc2c(c1)-c1nn(CCCN(C)C)c3ccc([N+](=O)[O-])c(c13)N2	–	4.72 µM and 2.86 µM	0.274 µM and 0.135 µM	1.33 µM and 2.05 µM	–	6.12 µM and 6.94 µM	0.355	3.17 µM and 3.24 µM	0.102 µM and 0.26 µM	1.25 µM and 3.69 µM	–	3.68 µM and 10.1 µM	–	2.08 µM and 2.3 µM	0.175 µM and 0.389 µM	3.76 µM and 3.07 µM	0.117 µM and 0.385 µM	1.03 µM and 2.26 µM	0.103 µM and 0.27 µM	1.21 µM and 3.06 µM
C[C@@H](CO)NC(=O)c1cc(-c2ccc(Cl)cc2)nn(-c2cnn(C)c2)c1=O	29.6	> 100 µM	7.79 µM	45.8 µM	25.6	> 100 µM	24.8	> 100 µM	15.4 µM	67.2 µM	19.3	> 100 µM	27.9	> 100 µM	16.4 µM	50.7 µM	14.4 µM	35.7 µM	30 µM	> 100 µM
Cc1ccc(-n2nnnc2-c2cnc(N3CCOCC3)nc2-c2cccc(C(F)(F)F)c2)cc1	1.62	16.9 µM	1.99 µM	> 14.5 µM	3	29.4 µM	1.27	> 13.8 µM	4 µM	> 14.7 µM	2.53	> 13.9 µM	1.36	4.11 µM	1.1 µM	3.65 µM	1.89 µM	> 12.9 µM	2 µM	> 22.4 µM
CN(CCC(=O)/C(=C\c1ccccc1)c1ccc(Cl)cc1)Cc1ccccc1	2.35	6.78 µM	1.86 µM	3.69 µM	2.76	10 µM	3.99	47.5 µM	2.25 µM	5.46 µM	2.38	6.39 µM	2.94	8.62 µM	2.76 µM	7.5 µM	1.69 µM	3.19 µM	3.18 µM	11.2 µM
COC1CC(N)C(O)C(C)O1 (stereo unspecified)	–	> 100 µM	–	> 100 µM	–	> 100 µM	–	> 100 µM	–	> 100 µM	–	> 100 µM	–	> 100 µM	–	> 100 µM	–	> 100 µM	–	> 100 µM
Cn1cc(C2=C(Nc3ccccc3)C(=O)NC2=O)c2ccccc21	> 25	> 25 µM	> 25 µM	> 25 µM	> 25	> 25 µM	> 25	> 25 µM	> 25 µM	> 25 µM	> 25	> 25 µM	> 25	> 25 µM	> 25 µM	> 25 µM	24.6 µM	> 25 µM	> 25 µM	> 25 µM
CCSC[C@@H]1C[C@](O)(c2ccc(F)cc2)[C@@H](c2ccc(F)cc2)O1	15.1	28.4 µM	20.2 µM	45.7 µM	14.7	29.6 µM	18	37 µM	18.4 µM	32.6 µM	17.9	33.3 µM	19.1	46.6 µM	15.3 µM	31.6 µM	18.4 µM	49.3 µM	14.8 µM	30.2 µM
CN(C)c1ccc(/C=N/S(=O)(=O)c2ccc(-n3c(-c4ccccc4)nc4c(Br)cc(Br)cc4c3=O)cc2)cc1	32.6	> 90.2 µM	50.2 µM	> 100 µM	48.5	> 100 µM	32.6	> 92.1 µM	40.4 µM	> 100 µM	43.4	> 100 µM	37.7	92.6 µM	35.5 µM	> 100 µM	32.2 µM	> 97 µM	28.5 µM	> 100 µM
CC1(C)O[C@@H]2C[C@H]3[C@@H]4C[C@H](F)C5=CC(=O)C=C[C@]5(C)[C@@]4(F)[C@@H](O)C[C@]3(C)[C@]2(C(=O)CO)O1	–	> 100 µM	–	> 100 µM	–	> 100 µM	–	> 100 µM	–	> 100 µM	–	> 100 µM	–	> 100 µM	–	> 100 µM	–	> 100 µM	–	> 100 µM
Cc1cccc2c3c(sc12)C(c1ccc(F)cc1)C(C#N)=C(N)O3 (stereo unspecified)	0.151	13 µM	0.0271 µM	0.0825 µM	0.35	17.5 µM	0.0482	1.95 µM	0.0658 µM	13.2 µM	0.159	11.7 µM	0.127	12 µM	0.0284 µM	0.329 µM	0.0353 µM	1.49 µM	0.0537 µM	2.52 µM
